Reference: patent US20250271426A1, “REDUCTION OF BITTER TASTE OF ACTIVE PHARMACEUTICAL INGREDIENTS AND RELATED ASSAYS AND SCREENING METHODS” (Firmenich Incorporated, priority 2022, published 2025)

How the values were obtained:
Assay in all cases: FLIPR calcium assay, cells with promiscuous G protein transfected with bitter receptor cDNA
Format in all cases: cell-based
Conditions in all cases: responsive if cellular response of >10% over baseline, Fluo4-AM
[1] = biological target: T1, T2R receptor SEQ ID NO: 1 (S1) (Homo sapiens, UniProt Q9NYW7)
T1 construct: expressed in transfected cells; host or cells: cells expressing a promiscuous G protein (e.g., G16g44)
T1 sequence (Q9NYW7 1-299): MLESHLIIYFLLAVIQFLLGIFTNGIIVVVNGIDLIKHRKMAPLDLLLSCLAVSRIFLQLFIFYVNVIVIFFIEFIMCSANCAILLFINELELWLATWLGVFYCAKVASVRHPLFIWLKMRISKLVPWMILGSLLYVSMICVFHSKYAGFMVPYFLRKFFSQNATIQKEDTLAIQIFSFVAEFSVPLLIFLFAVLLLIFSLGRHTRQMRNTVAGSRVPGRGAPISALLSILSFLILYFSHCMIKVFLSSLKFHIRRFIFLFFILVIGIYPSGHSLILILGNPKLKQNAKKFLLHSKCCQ
Outline: (§1)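 Fluo4-AM calcium imaging on FLIPR, agonist added during recording. Host: G16g44 cells, one receptor cDNA per transfection, 28 h culture. Activity cutoff >10% over baseline.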

[2] = biological target: T2, T2R receptor SEQ ID NO: 6 (S6) (Homo sapiens, UniProt P59540)
T2 construct: expressed in transfected cells; host or cells: cells expressing a promiscuous G protein (e.g., G16g44)
T2 sequence (P59540 1-309): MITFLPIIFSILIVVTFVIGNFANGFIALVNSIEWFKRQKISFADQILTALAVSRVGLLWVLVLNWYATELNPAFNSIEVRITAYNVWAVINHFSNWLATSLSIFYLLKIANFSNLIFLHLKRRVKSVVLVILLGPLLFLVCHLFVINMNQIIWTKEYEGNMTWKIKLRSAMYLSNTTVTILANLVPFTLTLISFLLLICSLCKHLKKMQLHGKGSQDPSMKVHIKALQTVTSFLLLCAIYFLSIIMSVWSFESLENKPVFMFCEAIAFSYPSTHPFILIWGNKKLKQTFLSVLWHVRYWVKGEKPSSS
Outline: as §1

[3] = biological target: T3, T2R receptor SEQ ID NO: 5 (S5) (Homo sapiens, UniProt P59534)
T3 construct: expressed in transfected cells; host or cells: cells expressing a promiscuous G protein (e.g., G16g44)
T3 sequence (P59534 18-338): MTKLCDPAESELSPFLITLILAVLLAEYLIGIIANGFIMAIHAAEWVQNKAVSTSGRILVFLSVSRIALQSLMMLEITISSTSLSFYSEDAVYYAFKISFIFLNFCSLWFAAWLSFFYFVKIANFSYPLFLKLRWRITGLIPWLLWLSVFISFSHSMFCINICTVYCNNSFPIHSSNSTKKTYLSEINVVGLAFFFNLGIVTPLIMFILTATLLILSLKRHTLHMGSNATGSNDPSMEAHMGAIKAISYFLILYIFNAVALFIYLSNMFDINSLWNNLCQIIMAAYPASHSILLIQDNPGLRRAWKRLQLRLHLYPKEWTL
Outline: as §1

[4] = biological target: T4, T2R receptor SEQ ID NO: 4 (S4) (Homo sapiens, UniProt Q9NYV8)
T4 construct: expressed in transfected cells; host or cells: cells expressing a promiscuous G protein (e.g., G16g44)
T4 sequence (Q9NYV8 1-317): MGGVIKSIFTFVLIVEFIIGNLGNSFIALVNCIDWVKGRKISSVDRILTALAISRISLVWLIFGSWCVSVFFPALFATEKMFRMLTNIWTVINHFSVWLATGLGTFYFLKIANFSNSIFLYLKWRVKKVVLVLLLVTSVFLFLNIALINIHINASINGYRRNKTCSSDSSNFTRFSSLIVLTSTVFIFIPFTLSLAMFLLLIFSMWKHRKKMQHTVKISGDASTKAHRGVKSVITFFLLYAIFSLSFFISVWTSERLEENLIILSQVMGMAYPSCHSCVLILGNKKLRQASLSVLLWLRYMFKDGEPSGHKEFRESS
Outline: as §1

[5] = biological target: T5, T2R receptor SEQ ID NO: 3 (S3) (Homo sapiens, UniProt Q9NYW0, T156M)
T5 construct: expressed in transfected cells; host or cells: cells expressing a promiscuous G protein (e.g., G16g44)
T5 sequence (Q9NYW0 1-307 T156M): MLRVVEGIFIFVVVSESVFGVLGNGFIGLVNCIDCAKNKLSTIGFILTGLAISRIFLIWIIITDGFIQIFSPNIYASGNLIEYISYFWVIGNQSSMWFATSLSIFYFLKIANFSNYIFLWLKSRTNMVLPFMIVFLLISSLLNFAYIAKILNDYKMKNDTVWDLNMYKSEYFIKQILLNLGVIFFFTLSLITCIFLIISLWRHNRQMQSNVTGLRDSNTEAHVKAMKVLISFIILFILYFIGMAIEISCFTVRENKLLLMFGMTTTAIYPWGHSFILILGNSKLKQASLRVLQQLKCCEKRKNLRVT
Outline: as §1

[6] = biological target: T6, T2R receptor SEQ ID NO: 2 (S2) (Homo sapiens, UniProt Q9NYW2)
T6 construct: expressed in transfected cells; host or cells: cells expressing a promiscuous G protein (e.g., G16g44)
T6 sequence (Q9NYW2 1-309): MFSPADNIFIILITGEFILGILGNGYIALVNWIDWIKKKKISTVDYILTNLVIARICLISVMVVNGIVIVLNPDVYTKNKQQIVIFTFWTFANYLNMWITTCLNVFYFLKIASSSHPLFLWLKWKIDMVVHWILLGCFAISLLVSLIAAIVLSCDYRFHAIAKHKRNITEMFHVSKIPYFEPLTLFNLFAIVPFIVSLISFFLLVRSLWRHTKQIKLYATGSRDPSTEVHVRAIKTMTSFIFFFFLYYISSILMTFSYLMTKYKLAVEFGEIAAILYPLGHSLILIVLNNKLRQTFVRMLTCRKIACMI
Outline: as §1

Row | SMILES | S1 positive response of T2R receptor to API [1] | S6 positive response of T2R receptor to API [2] | S5 positive response of T2R receptor to API [3] | S4 positive response of T2R receptor to API [4] | S3 positive response of T2R receptor to API [5] | S2 positive response of T2R receptor to API [6]
1 | CCN(CC)CCCC(C)Nc1ccnc2cc(Cl)ccc12 (stereo not drawn) [Chloroquine] | + (a “+” to indicate whether a particular T2R receptor showed a positive response to a particular API) | + (a “+” to indicate whether a particular T2R receptor showed a positive response to a particular API) | + (a “+” to indicate whether a particular T2R receptor showed a positive response to a particular API) | + (a “+” to indicate whether a particular T2R receptor showed a positive response to a particular API) | + (a “+” to indicate whether a particular T2R receptor showed a positive response to a particular API) | + (a “+” to indicate whether a particular T2R receptor showed a positive response to a particular API)
2 | O=C(O)COCCN1CCN(C(c2ccccc2)c2ccc(Cl)cc2)CC1 (stereo not drawn) [Cetirizine] | + (a “+” to indicate whether a particular T2R receptor showed a positive response to a particular API) | + (a “+” to indicate whether a particular T2R receptor showed a positive response to a particular API) | + (a “+” to indicate whether a particular T2R receptor showed a positive response to a particular API) | + (a “+” to indicate whether a particular T2R receptor showed a positive response to a particular API) | + (a “+” to indicate whether a particular T2R receptor showed a positive response to a particular API) | + (a “+” to indicate whether a particular T2R receptor showed a positive response to a particular API)
3 | CN(C)CCOC(c1ccccc1)c1ccccc1 [Diphenhydramine] | + (a “+” to indicate whether a particular T2R receptor showed a positive response to a particular API) | + (a “+” to indicate whether a particular T2R receptor showed a positive response to a particular API) | + (a “+” to indicate whether a particular T2R receptor showed a positive response to a particular API) | + (a “+” to indicate whether a particular T2R receptor showed a positive response to a particular API) | + (a “+” to indicate whether a particular T2R receptor showed a positive response to a particular API) | + (a “+” to indicate whether a particular T2R receptor showed a positive response to a particular API)
4 | CN(C)CCC=C1c2ccccc2COc2ccccc21 [Doxepin] | + (a “+” to indicate whether a particular T2R receptor showed a positive response to a particular API) | + (a “+” to indicate whether a particular T2R receptor showed a positive response to a particular API) | + (a “+” to indicate whether a particular T2R receptor showed a positive response to a particular API) | + (a “+” to indicate whether a particular T2R receptor showed a positive response to a particular API) | + (a “+” to indicate whether a particular T2R receptor showed a positive response to a particular API) | + (a “+” to indicate whether a particular T2R receptor showed a positive response to a particular API)
5 | CN(C)CCOC(C)(c1ccccc1)c1ccccn1 (stereo not drawn) [Doxylamine] | + (a “+” to indicate whether a particular T2R receptor showed a positive response to a particular API) | + (a “+” to indicate whether a particular T2R receptor showed a positive response to a particular API) | + (a “+” to indicate whether a particular T2R receptor showed a positive response to a particular API) | + (a “+” to indicate whether a particular T2R receptor showed a positive response to a particular API) | + (a “+” to indicate whether a particular T2R receptor showed a positive response to a particular API) | + (a “+” to indicate whether a particular T2R receptor showed a positive response to a particular API)
